Laboratory results reported in ChEMBL document CHEMBL3632564, “Synthesis of 17-membered azalides from a 16-membered macrolide utilizing amide-selective silane reduction” (2015).
Converted amounts (≈) assume the structure as drawn.

How the values were obtained:
Assay type in all cases: functional
[1] = test system: Streptococcus pneumoniae; assay: Antibacterial activity against penicillin-intermediate Gram-positive Streptococcus pneumoniae TY-5745 after 18 hrs by agar dilution method; details: TY-5745, 18 h
[2] = test system: Haemophilus influenzae; assay: Antibacterial activity against beta-lactamase-negative ampicillin-resistant Gram-negative Haemophilus influenzae ME587 after 18 hrs by agar dilution method; details: ME587, 18 h
[3] = test system: Streptococcus pneumoniae; assay: Antibacterial activity against penicillin-susceptible Gram-positive Streptococcus pneumoniae S-223 after 18 hrs by agar dilution method; details: S-223, 18 h
[4] = test system: Streptococcus pneumoniae; assay: Antibacterial activity against penicillin-resistant Gram-positive Streptococcus pneumoniae JPS317 after 18 hrs by agar dilution method; details: JPS317, 18 h

CC[C@H]1OC(=O)CC[C@H](C)[C@@H](O[C@@H]2O[C@H](C)C[C@H](N(C)C)[C@H]2O)[C@@H](CC=O)C[C@@H](C)N(C)CCC/C(C)=C/[C@@H]1CO
MIC [1]: 32 µg/mL (≈ 54.9 µM) | MIC [2]: 4 µg/mL (≈ 6.86 µM) | MIC [3]: 8 µg/mL (≈ 13.7 µM) | MIC [4]: 8 µg/mL (≈ 13.7 µM)

CC[C@H]1OC(=O)CC[C@H](C)[C@@H](O[C@@H]2O[C@H](C)C[C@H](N(C)C)[C@H]2O)[C@@H](CC=O)C[C@@H](C)N(C)C/C=C/C(C)=C/[C@@H]1CO
MIC [1]: 32 µg/mL (≈ 55.1 µM) | MIC [2]: 4 µg/mL (≈ 6.89 µM) | MIC [3]: 16 µg/mL (≈ 27.5 µM) | MIC [4]: 32 µg/mL (≈ 55.1 µM)

CC[C@H]1OC(=O)CC[C@H](C)[C@@H](O[C@@H]2O[C@H](C)C[C@H](N(C)C)[C@H]2O)[C@@H](CC=O)C[C@@H](C)C(=O)/C=C/C(C)=C/[C@@H]1CO
MIC [1]: 1 µg/mL (≈ 1.77 µM) | MIC [2]: 1 µg/mL (≈ 1.77 µM) | MIC [3]: 0.25 µg/mL (≈ 0.442 µM) | MIC [4]: 0.5 µg/mL (≈ 0.884 µM)

CC[C@H]1OC(=O)[C@H](C)[C@@H](O[C@H]2C[C@@](C)(OC)[C@@H](O)[C@H](C)O2)[C@H](C)[C@@H](O[C@@H]2O[C@H](C)C[C@H](N(C)C)[C@H]2O)[C@](C)(O)C[C@@H](C)CN(C)[C@H](C)[C@@H](O)[C@]1(C)O [AZITHROMYCIN]
MIC [1]: 1 µg/mL (≈ 1.34 µM) | MIC [2]: 1 µg/mL (≈ 1.34 µM) | MIC [3]: 0.25 µg/mL (≈ 0.334 µM) | MIC [4]: 8 µg/mL (≈ 10.7 µM)

CC[C@H]1OC(=O)CC[C@H](C)[C@@H](O[C@@H]2O[C@H](C)C[C@H](N(C)C)[C@H]2O)[C@@H](CC=O)C[C@@H](C)CN(C)CC/C(C)=C/[C@@H]1CO
MIC [1]: 16 µg/mL (≈ 27.5 µM) | MIC [2]: 4 µg/mL (≈ 6.86 µM) | MIC [3]: 8 µg/mL (≈ 13.7 µM) | MIC [4]: 8 µg/mL (≈ 13.7 µM)
